We go through seven compounds from US5776957A, “Nornicotine enantiomers for use as a treatment for dopamine related conditions and disease states” (The University of Kentucky Research Foundation, priority 1996, dated 1998).

“Also recorded” adds a separate entry of the source. Read-outs that look alike come from different tables or passages of the source.

The subject of data set [1] is [3H]DA-preloaded rat striatal slices (nicotinic receptors). The data set can be described thus: [3H]overflow (DA release) from [3H]DA-preloaded rat striatal slices. It is filed as cell-based. How it is done: In vitro pharmacological effects of NIC are generally investigated using either striatal slices or synaptosome preparations preloaded with [^3 H] DA. NIC-evoked [^3 H]overflow is obtained routinely in the presence of nomifensine (10 μM; a DA uptake inhibitor) and for pargyline (10 μM, a monoamine oxidase inhibitor) in the superfusion buffer, such that [^3 H]overflow represents primarily [^3 H]DA rather than [H]DA-metabolites (Zumstein et al., 1981, Hoffmann and Cubeddu, 1982, Dwoskin and Zahniser, 1986, Rapier et al., 1988), and for this reason, [^3 H]overflow also will be referred to as [^3 H] DA release in the proposal.
The present studies use striatal slices superfused with various concentrations of NIC or norNIC for prolonged periods.
FIG. 4. […] Insets illustrate the response to the low concentration range. […] NIC exposure indicated by the bar under time course. Note: 1-min sample collection period. […] N=4 rats.
Rat striatal slices were depolarized with 10 μM NIC, 20 mM K+or 1 Hz, 60 pulses or 3 Hz, 180 pulses electrical field stimulation. […] N=4.
MEC or DHβE was included in the superfusion buffer for 60 min prior to the addition of NIC, and superfusion continued for 60 min in the presence of NIC+antagonist.

For data set [2], the system named is mouse striatal synaptosomes. The note with it: Grady et al., 1992, cited from earlier work.
Data set [3] in a line: NIC and metabolites in rat brain after s.c. injection of radiolabelled NIC. It counts as in vivo. An excerpt: NIC metabolism studies involving HPLRC analysis invariably utilize NIC with a radiolabel (i.e., [^3 H], [^14 C] or [^11 C]) incorporated in the methyl group. However N-demethylated NIC metabolites (norNIC and norCOT) cannot be detected after injection of such radionuclides, since the label is lost in the formation of these metabolites. NIC and four NIC metabolites have recently been detected in rat brain 4 hr after s.c. injection of [2'-^14 C]NIC (FIG. 3, Table I). Three of these metabolites have been identified as COT, norNIC and norCOT. A fourth minor metabolite (Peak B) has not been completely identified but appears to be an N-demethylated metabolite, since it is not detected in the [^3 H-N-methyl]NIC studies.
COT, and therefore, is unlikely to originate from COT N-demethylation. 3-HydroxyCOT and its glucuronide conjugate were not detected as metabolites of either NIC or COT in brain, even though these are major biotransformation products in the periphery (Crooks, 1993).
It appears that NIC metabolites which accumulate with a time course that correlates with the development of behavioral sensitization to NIC have a role in eliciting sensitization to NIC. The inventors have detected NIC, COT, norNIC and norCOT in brain 4 hr following acute s.c. injection of (±)[2'-^14 C]NIC. S(-) [^3 H] -N-methyl]NIC is unsuitable for studying brain metabolism of NIC, since nor-metabolites (i.e., demethylated metabolites) cannot be detected due to [^3 H]-loss during metabolism (Crooks et al., 1995b, AP 7). Thus, commercially available (±)[2'-^14 C]NIC was used to determine NIC metabolites present in brain. This form of radiolabelled NIC provides a metabolically stable [^14 C]-label which allows measurement of all potential NIC metabolites.
A second "metabolite" (Peak A, FIG. 2) was also detected at each time point and most likely results from a combination of metabolic cleavage of the N-methyl group and dissociated-[^3 H], i e, Peak A represents an oxidized 1-carbon unit and indicates the extent of NIC N-demethylation. Note, in our subsequent studies with [2'-^14 C]NIC, Peak A was not observed, which is consistent with our interpretation of the results (Table 1).

The conditions of data set [4]: cited from earlier work.
Data set [5] can be described thus: Amphetamine drug discrimination (substitution tests). It is filed as in vivo, rat. Here is the method: Rats were trained in on two-lever food-reinforced operant tasks to discriminate amphetamine (1 mg/kg) from saline. After discrimination training stabilized, test doses of amphetamine (0.0625-2.0 mg/kg), nicotine (0.1-1.0 mg/kg) or nornicotine (1-10 mg/kg) were assessed for their ability to substitute for the amphetamine training dose during brief test sessions in which food reinforcement was withheld.
Nine male Sprague-Hawley rats were obtained from Harlan Industries (Indianapolis, Ind.) and were caged individually with water continuously available. Food access was restricted in order to maintain body weights at approximately 80% of free-feeding weight. Prior to the start of the experiment, all rats received a single injection of amphetamine (1 mg.kg, IP) as part of an unrelated experiment. Apparatus Six operant chambers (ENV-001, Med Associates, St. Albans, Vt.) enclosed in a sound attenuating environment were used. Located in the bottom center of the front panel in each chamber was a 5×4.-cm opening to a recessed food tray. Two metal response levers were located on the front panel, one on each side of the food tray. The center of each lever was mounted 7.3 cm from the grid floor. A 28-Vcue light, 3 cm in diameter, was centered 6 cm above each lever. A personal computer, interfaced to the chamber with Med Associates equipment, controlled the experimental sessions and collected data.
The general procedures utilized to establish amphetamine discrimination were similar to those outlined previously (13). Briefly, rats were first given access to food pellets (45 mg sucrose pellet, Noyes Co., Lancaster, N.H.) dispensed noncontingently into the food tray with both levers present. One lever was then removed and the rat was shaped to depress the other lever for food reinforcement. Following this, rats received 15-min daily sessions in which the lever (left or right) available for food reinforcement was alternated daily. […] The start of each session was signaled by the onset of both cue lights mounted above the levers, and the termination of each session was signaled by the offset of these lights. This training phase was continued until the rat earned 20 reinforces on an FR25 schedule for two days.
Amphetamine discrimination training was conducted Monday through Friday. For this training, both levers were mounted in the chamber. Amphetamine (A; 1 mg/kg) or saline (S), was injected IP 15 min prior to the start of the session, with the order of injections being either AASS or SSAA. The left lever was designated as the amphetamine-correct lever for 4 rats, while the right lever was amphetamine -correct for 5 rats. On Monday, Wednesday and Friday, injection-appropriate responding was food-reinforcedon an FR25 schedule for the entire 15-min session. However, 2-min extinction periods were instituted at the beginning of sessions on Tuesday and Thursday (one amphetamine and one saline test per week) to assess the control of amphetamine (or saline) over responding. […] During the remaining 13 min of these sessions, contingent reinforcement for injection-appropriate responding was reinstated. This phase of training was continued until the rat completed the first FR25 on the correct lever for 10 consecutive sessions and also completed 80% or more responses on the injection-appropriate lever during 4 consecutive extinction periods.
The substitution phase was identical to the previously described amphetamine discrimination phase, except for the Friday session, which was decreased to a 4-min extinction session with no food available.

Setting [6] is: rat brain, 4 hrs after s.c. injection, Table 1, footnote e.
Where [7] appears, read: rat brain, 4 hrs after s.c. injection, Table 1, footnote f.

With `CO[C@H]1CC=C2CCN3CCC4=C(CC(=O)OC4)[C@]23C1` [DHβE, dihydro-β-erythroidine], in data set [1] (10 μM NIC, concentration-dependent), the “inhibition of NIC-evoked [3H]overflow” value is “robustly inhibited”. Further, in data set [1] (100 μM), the “effect on [3H]DA release itself” value is “evoked the release of [^3 H]DA itself”. The results for the “inhibition of norNIC-evoked [3H]overflow” value in data set [1] (high concentrations (100 μM-3 mM) of norNIC) and in data set [1] (low concentrations (<100 μM) of norNIC) were “ineffective in inhibiting” and “effectively inhibited”, respectively. In data set [1] (norNIC concentration-response curve), the “mode of antagonism of norNIC response” value is listed as “competitive”.
Consider `c1cncc(C2CCCN2)c1` (racemic) [(±) norNIC], for which the “evoked [3H]overflow / [3H]DA release” value in data set [2] was “concentration dependent increase”; in data set [2] (listed as (+) nornicotine) it was “concentration-dependent increase”.
Turning to `CN1C(=O)C(O)CC1c1cccnc1` (stereo not shown) [3-HydroxyCOT], the “presence as metabolite in brain” value in data set [3] (rat, in vivo, sc) is recorded as “not detected”.
Consider `O=C1CCC(c2cccnc2)N1` (stereo not shown) [NorCOT, norcotinine], for which the “presence as metabolite in brain” value in data set [3] (rat brain, after s.c. radiolabelled NIC) is reported as “minor CNS metabolite of NIC”.
Take `CCN1CCC[C@H]1CNC(=O)c1c(O)c(Cl)cc(Cl)c1OC` [raclopride]: in data set [1] (1 μM, electrical field stimulation), the “effect on overflow evoked by 1 or 3 Hz stimulation” value is on record as “increases overflow”.
Take `CC(N)Cc1ccccc1` (stereo not drawn) [amphetamine, d-Amphetamine]: the “cross-sensitization between nicotine and amphetamine” value in data set [4] is given as “has not been observed”. In addition, the “substitution for amphetamine training dose” value in data set [5] (1 and 2 mg/kg) is reported as “substituting fully; also recorded: substituted fully”. For the same compound, in data set [5] (1 and 2 mg/kg IP, 15 min), the amphetamine-appropriate responding result is recorded as “greater than 80%”. The “total number of lever presses” value in data set [5] (15 min) is recorded as “dose-related decrease in total number of lever presses”.
Take `CN1CCC[14CH]1c1cccnc1` (racemic) [[^14 C-2']-NIC]: in data set [3] (setting [6]), the “Percent of Total Radiolabel: COT” value was determined as 60.8 ± 0.63%, the “Percent of Total Radiolabel: NIC” value came to 24.2 ± 2.94%, the “Percent of Total Radiolabel: Peak A” value worked out at 0.0 ± 0.0% and the “Percent of Total Radiolabel: Peak B” value is reported as 0.0 ± 0.0%. Further, the “Percent of Total Radiolabel: norNIC” value in data set [3] (setting [6]) came to 15.1 ± 2.54%. Besides, in data set [3] (setting [7]), the “Percent of Total Radiolabel: COT” value is 62.9 ± 5.27%, the “Percent of Total Radiolabel: NIC” value was determined as 14.2 ± 3.30%, the “Percent of Total Radiolabel: Peak A” value came to 0.0 ± 0.0% and the “Percent of Total Radiolabel: Peak B” value turned out to be 2.33 ± 0.12%. Further, in data set [3] (setting [7]), the “Percent of Total Radiolabel: norCOT” value was found to be 4.15 ± 0.48% and the “Percent of Total Radiolabel: norNIC” value was 16.5 ± 2.04%.
